Substance: (S)-(4,5-dihydro-7H-thieno[2,3-c]pyran-7-yl)-N-methylmethanamine R-mandelate [(S)-TPMA R-mandelate]
- solubility in de-ionized water: freely soluble
- USP Descriptor (de-ionized water): Freely Soluble
- Final solution PH (de-ionized water, approx. 200 mg salt in 1 mL): 6.2
- Solubility (mgA/mL) (de-ionized water, expressed in terms of free base): >107 mgA/mL
